Experimental data as given in patent US20230002372A1, “AZAINDOLE CARBOXAMIDE COMPOUNDS FOR THE TREATMENT OF MYCOBACTERIAL INFECTIONS” (THE GLOBAL ALLIANCE FOR TB DRUG DEVELOPMENT, INC., priority 2019, published 2023).
In brackets after ≈: the same amount, converted by molar mass.

Each compound was assayed on M tb H37Rv (assay: MIC determination against M tb H37Rv (green fluorescent protein reporter assay; MIC-MABA)). Settings: Mycobacterium tuberculosis, H37RV, 240 h, read-out: M. TB H37Rv: MIC-MABA: MIC, M. tb H37Rv; 7H9 broth; 10 days exposure; MIC = lowest concentration inhibiting fluorescence by 90%.
Assay type: cell-based, Mycobacterium tuberculosis

Structure (SMILES)	MIC [µg/mL]
Cc1ncc2[nH]c(C(=O)NC3CCC(C)(C)CC3)cc2c1F [MPL-141, N-(4,4-dimethylcyclohexyl)-4-fluoro-5-methyl-1H-pyrrolo[2,3-c]pyridine-2-carboxamide]	0.29 (≈ 0.956 µM)
CC1(C)CCC(NC(=O)c2cc3cc(F)ncc3[nH]2)CC1 [MPL-129, N-(4,4-dimethylcyclohexyl)-5-fluoro-1H-pyrrolo[2,3-c]pyridine-2-carboxamide]	0.5 (≈ 1.73 µM)
CC1(C)[C@H]2C[C@H](NC(=O)c3cc4c(C#N)ccnc4[nH]3)[C@](C)(O)[C@@H]1C2 [MPL-215, 4-cyano-N-[(1R,2R,3S,5R)-2-hydroxy-2,6,6-trimethyl-norpinan-3-yl]-1H-pyrrolo[2,3-b]pyridine-2-carboxamide]	1.4 (≈ 4.14 µM)
CC1(C)[C@H]2C[C@H](NC(=O)c3cc4c(Cl)cncc4[nH]3)[C@](C)(O)[C@@H]1C2 [MPL-222, 4-chloro-N-[(1R,2R, 3S, 5R)-2-hydroxy-2,6,6-trimethyl-norpinan-3-yl]-1H-Pyrrolo[2,3-c]pyridine-2-carboxamide]	0.19 (≈ 0.546 µM)
C[C@@H]1[C@@H](NC(=O)c2cc3c(F)cncc3[nH]2)C[C@H]2C[C@@H]1C2(C)C [MPL-092, 4-fluoro-N-[(1S,2S,3S,5R)-2,6,6-trimethylnorpinan-3-yl]-1H-pyrrolo[2,3-c]pyridine-2-carboxamide]	1.2 (≈ 3.8 µM)
Cc1ncc2[nH]c(C(=O)NC3CC[Si](C)(C)CC3)cc2c1F [MPL-318, N-(1,1-dimethylsilinan-4-yl)-4-fluoro-5-methyl-1H-pyrrolo[2,3-c]pyridine-2-carboxamide]	0.134 (≈ 0.419 µM)
C[C@@H]1[C@@H](NC(=O)c2cc3cc(F)ncc3[nH]2)C[C@H]2C[C@@H]1C2(C)C [MPL-128, 5-fluoro-N-[(1S,2S,3S,5R)-2,6,6-trimethylnorpinan-3-yl]-1H-pyrrolo[2,3-c]pyridine-2-carboxamide]	2.3 (≈ 7.29 µM)
O=C(NC1CC[Si]2(CCCCC2)CC1)c1cc2c(Cl)cncc2[nH]1 [MPL-260, 4-chloro-N-(6-silaspiro[5.5]undecan-3-yl)-1H-pyrrolo[2,3-c]pyridine-2-carboxamide]	0.0075 (≈ 0.0207 µM)
Cc1ncc2[nH]c(C(=O)NC3CCC[Si](C)(C)CC3)cc2c1F (centres unmarked) [MPL-351, N-(1,1-dimethylsilepan-4-yl)-4-fluoro-5-methyl-1H-pyrrolo[2,3-c]pyridine-2-carboxamide]	0.248 (≈ 0.744 µM)
Cc1ccnc2[nH]c(C(=O)NC3CCCCCCC3)cc12 [MPL-031, N-cyclooctyl-4-methyl-1H-pyrrolo[2,3-b]pyridine-2-carboxamide]	0.25 (≈ 0.876 µM)
CC1(C)[C@H]2C[C@H](NC(=O)c3cc4c(C(F)(F)F)ccnc4[nH]3)[C@](C)(O)[C@@H]1C2 [MPL-216, N-[(1R,2R,3S,5R)-2-hydroxy-2,6,6-trimethyl-norpinan-3-yl]-4-(trifluoromethyl)-1H-pyrrolo[2,3-b]pyridine-2-carboxamide]	0.041 (≈ 0.107 µM)
Cc1cc(F)c2c(C)c(C(=O)NC3CC[Si]4(CCCC4)CC3)[nH]c2n1 [MPL-280, 4-fluoro-3,6-dimethyl-N-(5-silaspiro[4.5]decan-8-yl)-1H-pyrrolo[2,3-b]pyridine-2-carboxamide]	0.043 (≈ 0.12 µM)
Cc1cc2cc(C(=O)NC3CCC(C)(C)CC3)[nH]c2cn1 [MPL-125, N-(4,4-dimethylcyclohexyl)-5-methyl-1H-pyrrolo[2,3-c]pyridine-2-carboxamide]	3.1 (≈ 10.9 µM)
CC1(C)C=CC(NC(=O)c2cc3c(F)ccnc3[nH]2)CC1 (centres unmarked) [MPL-160, N-(4,4-dimethylcyclohex-2-en-1-yl)-4-fluoro-1H-pyrrolo[2,3-b]pyridine-2-carboxamide]	0.77 (≈ 2.68 µM)
N#Cc1cncc2[nH]c(C(=O)NC3CCCCCCC3)cc12 [MPL-096, 4-cyano-N-cyclooctyl-1H-pyrrolo[2,3-c]pyridine-2-carboxamide]	0.47 (≈ 1.59 µM)
Cc1cc(F)c2c(C)c(C(=O)NC3CC[Si]4(CCCCC4)CC3)[nH]c2n1 [MPL-281, 4-fluoro-3,6-dimethyl-N-(6-silaspiro[5.5]undecan-3-yl)-1H-pyrrolo[2,3-b]pyridine-2-carboxamide]	0.0151 (≈ 0.0404 µM)
O=C(NC1CCC2(CC1)CC2)c1cc2c(Cl)cncc2[nH]1 [MPL-163, 4-chloro-N-spiro[2.5]octan-6-yl-1H-pyrrolo[2,3-c]pyridine-2-carboxamide]	0.64 (≈ 2.11 µM)
COc1ccnc2[nH]c(C(=O)N[C@H]3C[C@H]4C[C@@H]([C@@H]3C)C4(C)C)cc12 [MPL-014, 4-methoxy-N-[(1S,2S,3S,5R)-2,6,6-trimethylnorpinan-3-yl]-1H-pyrrolo[2,3-b]pyridine-2-carboxamide]	5.4 (≈ 16.5 µM)
C[Si]1(C)CCCC(NC(=O)c2cc3c(F)c(Cl)ncc3[nH]2)CC1 (centres unmarked) [MPL-346, 5-chloro-N-(1,1-dimethylsilepan-4-yl)-4-fluoro-1H-pyrrolo[2,3-c]pyridine-2-carboxamide]	0.464 (≈ 1.31 µM)
COc1c(C(F)(F)F)ncc2[nH]c(C(=O)NC3CC[Si](C)(C)CC3)cc12 [MPL-379, N-(1,1-dimethylsilinan-4-yl)-4-methoxy-5-(trifluoromethyl)-1H-pyrrolo[2,3-c]pyridine-2-carboxamide]	0.332 (≈ 0.861 µM)
CC1(C)C2CCC1(C)C(NC(=O)c1cc3c(Cl)cncc3[nH]1)C2 (centres unmarked) [MPL-189, 4-chloro-N-(1,7,7-trimethylnorbornan-2-yl)-1H-pyrrolo[2,3-c]pyridine-2-carboxamide]	0.095 (≈ 0.286 µM)

Structure (SMILES)	MIC [µg/mL]
O=C(NC1CCC2(CCC2)CC1)c1cc2c(Cl)ccnc2[nH]1 [MPL-001, 4-chloro-N-spiro[3.5]nonan-7-yl-1H-pyrrolo[2,3-b]pyridine-2-carboxamide]	0.03 (≈ 0.0944 µM)
Cc1ccnc2[nH]c(C(=O)N[C@H]3C[C@H]4C[C@@H]([C@@H]3C)C4(C)C)cc12 [MPL-016, 4-methyl-N-[(1S,2S,3S,5R)-2,6,6-trimethylnorpinan-3-yl]-1H-pyrrolo[2,3-b]pyridine-2-carboxamide]	0.38 (≈ 1.22 µM)
Cc1ncc2[nH]c(C(=O)NC3CC[Si](C)(C)CC3)cc2c1Cl [MPL-328, 4-chloro-N-(1,1-dimethylsilinan-4-yl)-5-methyl-1H-pyrrolo[2,3-c]pyridine-2-carboxamide]	0.061 (≈ 0.182 µM)
Cc1nc2[nH]c(C(=O)N[C@H]3C[C@H]4C[C@@H]([C@@H]3C)C4(C)C)cc2c(F)c1F [MPL-066, 4,5-difluoro-6-methyl-N-[(1S,2S,3S,5R)-2,6,6-trimethylnorpinan-3-yl]-1H-pyrrolo[2,3-b]pyridine-2-carboxamide]	0.012 (≈ 0.0345 µM)
CC1(C)CCC(NC(=O)c2cc3c(F)cncc3[nH]2)CC1 [MPL-094, N-(4,4-dimethylcyclohexyl)-4-fluoro-1H-pyrrolo[2,3-c]pyridine-2-carboxamide]	0.049 (≈ 0.169 µM)
C[Si]1(C)CCCC(NC(=O)c2cc3c(F)c(C(F)(F)F)ncc3[nH]2)CC1 (centres unmarked) [MPL-366, N-(1,1-dimethylsilepan-4-yl)-4-fluoro-5-(trifluoromethyl)-1H-pyrrolo[2,3-c]pyridine-2-carboxamide]	0.492 (≈ 1.27 µM)
C[C@@H]1[C@@H](NC(=O)c2cc3c(C#N)ccnc3[nH]2)C[C@H]2C[C@@H]1C2(C)C [MPL-013, 4-cyano-N-[(1S,2S,3S,5R)-2,6,6-trimethylnorpinan-3-yl]-1H-pyrrolo[2,3-b]pyridine-2-carboxamide]	1.2 (≈ 3.72 µM)
COc1ccnc2[nH]c(C(=O)NC3CCCCCCC3)cc12 [MPL-038, N-cyclooctyl-4-methoxy-1H-pyrrolo[2,3-b]pyridine-2-carboxamide]	6.2 (≈ 20.6 µM)
C[Si]1(C)CCCC(NC(=O)c2cc3c(Cl)c(Cl)ncc3[nH]2)CC1 (centres unmarked) [MPL-350, 4,5-dichloro-N-(1,1-dimethylsilepan-4-yl)-1H-pyrrolo[2,3-c]pyridine-2-carboxamide]	0.247 (≈ 0.667 µM)
C[Si]1(C)CCC(NC(=O)c2cc3c(F)c(Cl)ncc3[nH]2)CC1 [MPL-345, 5-chloro-N-(1,1-dimethylsilinan-4-yl)-4-fluoro-1H-pyrrolo[2,3-c]pyridine-2-carboxamide]	0.498 (≈ 1.47 µM)
Cc1cc(C)c2cc(C(=O)NC3CCC(C)(C)CC3)[nH]c2n1 [MPL-019, N-(4,4-dimethylcyclohexyl)-4,6-dimethyl-1H-pyrrolo[2,3-b]pyridine-2-carboxamide]	9 (≈ 30.1 µM)
Cc1cc(F)c2cc(C(=O)NC3CC[Si]4(CCCC4)CC3)[nH]c2n1 [MPL-253, 4-fluoro-6-methyl-N-(5-silaspiro[4.5]decan-8-yl)-1H-pyrrolo[2,3-b]pyridine-2-carboxamide]	0.056 (≈ 0.162 µM)
COc1cc(Cl)c2cc(C(=O)NC3CC[Si](C)(C)CC3)[nH]c2n1 [MPL-465, 4-chloro-N-(1,1-dimethylsilinan-4-yl)-6-methoxy-1H-pyrrolo[2,3-b]pyridine-2-carboxamide]	0.008 (≈ 0.0227 µM)
Cc1cc2cc(C(=O)N[C@H]3C[C@H]4C[C@@H]([C@@H]3C)C4(C)C)[nH]c2nc1C [MPL-070, 5,6-dimethyl-N-((1S,2S,3S,5R)-2,6,6-trimethylbicyclo[3.1.1]heptan-3-yl)-1H-pyrrolo[2,3-b]pyridine-2-carboxamide]	0.49 (≈ 1.51 µM)
CC1(C)[C@H]2C[C@H](NC(=O)c3cc4c(F)ccnc4[nH]3)[C@](C)(O)[C@@H]1C2 [MPL-213, 4-fluoro-N-[(1R,2R,3S,5R)-2-hydroxy-2,6,6-trimethyl-norpinan-3-yl]-1H-pyrrolo[2,3-b]pyridine-2-carboxamide]	0.046 (≈ 0.139 µM)
CC1(C)[C@H]2C[C@H](NC(=O)c3cc4c(F)cncc4[nH]3)[C@](C)(O)[C@@H]1C2 [MPL-221, 4-fluoro-N-[(1R,2R,3S,5R)-2-hydroxy-2,6,6-trimethyl-norpinan-3-yl]-1H-pyrrolo[2,3-c]pyridine-2-carboxamide]	0.2 (≈ 0.604 µM)
Cc1c(C(=O)NC2CC[Si](C)(C)CC2)[nH]c2nccc(F)c12 [MPL-210, N-(1,1-dimethylsilinan-4-yl)-4-fluoro-3-methyl-1H-pyrrolo[2,3-b]pyridine-2-carboxamide]	0.058 (≈ 0.182 µM)
Cc1nc2[nH]c(C(=O)NC3CCC[Si](C)(C)CC3)cc2c(F)c1F (centres unmarked) [MPL-282, N-(1,1-dimethylsilepan-4-yl)-4,5-difluoro-6-methyl-1H-pyrrolo[2,3-b]pyridine-2-carboxamide]	< 0.004
Cc1nc2[nH]c(C(=O)N[C@@H]3CCC[Si](C)(C)CC3)cc2c(F)c1F (single isomer, unassigned) [MPL-282A]	0.051 (≈ 0.145 µM)
CC1(C)CCC(NC(=O)c2cc3c(Br)ccnc3[nH]2)CC1 [MPL-007, 4-bromo-N-(4,4-dimethylcyclohexyl)-1H-pyrrolo[2,3-b]pyridine-2-carboxamide]	0.12 (≈ 0.343 µM)
